# Source: US6737383B1, “Herbicidal oxadiazolidines” (priority 1999, dated 2004)
# Experiments:
# cocklebur = assay: Test B pre/postemergence cocklebur; assay type: in vivo, Xanthium strumarium; conditions: for Cocklebur plant response rating (0 to 10 scale): 0 is no effect
# Procedure, shortened: (§1)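 Test chemicals in a non-phytotoxic solvent mixture with surfactant were sprayed preemergence onto planted seeds and postemergence onto plants 2 to 18 cm tall (1- to 4-leaf stage). After twelve to sixteen days in a greenhouse, injury was visually rated against untreated controls from 0 (no effect) to 10 (complete control).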
# sugar beet = assay: Test B pre/postemergence sugar beet; assay type: in vivo, Beta vulgaris; conditions: for Sugarbeets plant response rating (0 to 10 scale): 0 is no effect
# Procedure, shortened: as §1
# smallflower flatsedge = assay: Test B flood test smallflower flatsedge; assay type: in vivo, Cyperus difformis
# Procedure, shortened: (§2)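 Plants were grown to the 2-leaf stage before treatment with test chemical, then held in a greenhouse for twelve to sixteen days. Injury was visually rated against untreated controls on a 0–10 scale, where 0 is no effect and 10 is complete control.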
# bamyardgrass = assay: Test B flood test barnyardgrass; assay type: in vivo, Echinochloa crus-galli
# Procedure, shortened: as §2
# winter wheat [1] = assay: Test E winter wheat; assay type: in vivo, Triticum aestivum; conditions: Postemergence
# Procedure, shortened: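 Postemergence: spray at 1–4 leaf stage, soil 60:40 sandy loam:potting mix; solvent + surfactant formulation; greenhouse 21–28 d; visual injury vs untreated controls.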
# blackgrass = assay: Test E blackgrass; assay type: in vivo, Alopecurus myosuroides; conditions: Preemergence
# green foxtail = assay: Test E green foxtail; assay type: in vivo, Setaria viridis; conditions: Preemergence
# Italian ryegrass = assay: Test E Italian ryegrass; assay type: in vivo, Lolium multiflorum; conditions: Preemergence
# winter wheat [2] = assay: Test E winter wheat; assay type: in vivo, Triticum aestivum; conditions: Preemergence
# wild oat = assay: Test E wild oat; assay type: in vivo, Avena fatua; conditions: Preemergence; for Wild oat plant response rating (0 to 100 scale): Rate 250 g/ha
# winter barley = assay: Test E winter barley; assay type: in vivo, Hordeum vulgare; conditions: Preemergence
# [3] = Postemergence, Rate 125 g/ha, scale of 0 to 10 where 0 is no effect and 10 is complete control
# [4] = Preemergence, Rate 62 g/ha, scale 0 to 10 (0 no effect, 10 complete control)
# [5] = Preemergence, Rate 125 g/ha, 10 is complete control
# [6] = Preemergence, Rate 250 g/ha, scale 0 to 10, 0 is no effect, 10 is complete control
# [7] = Preemergence, Rate 500 g/ha, scale 0 to 10 (0 no effect, 10 complete control)
# [8] = Rate 62 g/ha, Postemergence, scale of 0 to 10 where 0 is no effect and 10 is complete control
# [9] = Rate 250 g/ha, Postemergence, scale 0 to 10, 0 is no effect, 10 is complete control
# [10] = Rate 500 g/ha, Postemergence, scale 0 to 10, 0 no effect, 10 complete control
# [11] = Postemergence (flood test species), Rate 125 g/ha, scale of 0 to 10 where 0 is no effect and 10 is complete control
# [12] = Rate 250 g/ha, Postemergence (flood test), scale 0 to 10, 0 is no effect, 10 is complete control
# [13] = Rate 250 g/ha, headed Pre-emergence (flood test species), scale 0 to 10 (0 no effect, 10 complete control)
# [14] = Rate 500 g/ha, headed Pre-emergence (flood test species), scale 0 to 10 (0 no effect, 10 complete control)
# [15] = Rate 500 g/ha, listed under Postemergence (flood test species), scale 0 to 10, 0 no effect, 10 complete control
# [16] = Rate 1000 g/ha, 0 to 100 scale, 0 is no effect and 100 is complete control
# [17] = Rate 1000 g/ha, 0 to 100 scale where 0 is no effect and 100 is complete control
# [18] = Rate 500 g/ha, Postemergence, scale 0 to 10
# [19] = Postemergence, Rate 1000 g/ha, scale 0 to 10 (0 no effect, 10 complete control)
# [20] = Rate 500 g/ha, listed under Postemergence (flood test species), scale 0 to 10
# [21] = Rate 2000 g/ha, Postemergence, scale 0 to 10
# [22] = Rate 250 g/ha, 0 to 100 scale where 0 is no effect and 100 is complete control
# [23] = Rate 500 g/ha, 0 to 100 scale where 0 is no effect and 100 is complete control
# [24] = Preemergence, Rate 62 g/ha, scale of 0 to 10 where 0 is no effect and 10 is complete control
# [25] = Preemergence, Rate 250 g/ha, scale of 0 to 10 where 0 is no effect and 10 is complete control
# [26] = Preemergence, Rate 500 g/ha, scale of 0 to 10 where 0 is no effect and 10 is complete control
# [27] = Rate 125 g/ha, Preemergence, scale of 0 to 10 where 0 is no effect and 10 is complete control
# [28] = Rate 62 g/ha, headed Pre-emergence (flood test species), scale 0 to 10 (0 no effect, 10 complete control)
# [29] = Rate 125 g/ha, Pre-emergence, flood test species, scale 0 to 10 where 0 is no effect and 10 is complete control
# [30] = Rate 250 g/ha, Pre-emergence, flood-test species, scale 0 to 10, 0 is no effect, 10 is complete control
# [31] = Rate 500 g/ha, Pre-emergence, flood test species, scale 0 to 10 (0 no effect, 10 complete control)
# [32] = Rate 1000 g/ha, 0 to 100 scale, 0 no effect, 100 complete control
compound,measurement,setting,value
CC(C)N(C(=O)n1oc(=O)n(-c2cnn(C)c2)c1=O)c1ccccc1 [Compound 123],Cocklebur plant response rating,cocklebur; [3],0
same,Cocklebur plant response rating,cocklebur; [4],0
same,Cocklebur plant response rating (0 to 10 scale),cocklebur; [5],0
same,Cocklebur plant response rating,cocklebur; [6],0
same,Cocklebur plant response rating,cocklebur; [7],0
same,Cocklebur plant response rating,cocklebur; [8],0
same,"Plant response rating, Cocklebur",cocklebur; [9],0
same,Cocklebur plant response rating,cocklebur; [10],1
same,Sugarbeets plant response rating,sugar beet; [3],0
same,Sugarbeets plant response rating,sugar beet; [4],0
same,Sugarbeets plant response rating (0 to 10 scale),sugar beet; [5],3
same,Sugarbeets plant response rating,sugar beet; [6],5
same,Sugarbeets plant response rating,sugar beet; [7],7
same,Sugarbeets plant response rating,sugar beet; [8],0
same,"Plant response rating, Sugarbeets",sugar beet; [9],1
same,Sugarbeets plant response rating,sugar beet; [10],2
same,S. Flatsedge plant response rating,smallflower flatsedge; [11],0
same,S. Flatsedge plant response rating,"smallflower flatsedge; Pre-emergence, Rate 1000 g/ha, scale 0 to 10 (0 no effect, 10 complete control)",0
same,S. Flatsedge plant response rating,"smallflower flatsedge; Rate 62 g/ha, Postemergence section, flood test species, scale of 0 to 10 where 0 is no effect and 10 is complete control",0
same,"Plant response rating, S. Flatsedge",smallflower flatsedge; [12],0
same,S. Flatsedge plant response rating,smallflower flatsedge; [13],0
same,"Plant response rating, S. Flatsedge",smallflower flatsedge; [14],0
same,S. Flatsedge plant response rating,smallflower flatsedge; [15],0
same,S. Flatsedge plant response rating,"smallflower flatsedge; Rate 2000 g/ha, Pre-emergence (as headed), scale 0 to 10",0
same,Barnyardgrass plant response rating,bamyardgrass; [11],0
same,Barnyardgrass plant response rating,"bamyardgrass; Postemergence, Rate 62 g/ha, scale 0 to 10, 0 is no effect, 10 is complete control",0
same,"Plant response rating, Barnyardgrass",bamyardgrass; [12],0
same,Barnyardgrass plant response rating,bamyardgrass; [13],0
same,"Plant response rating, Barnyardgrass",bamyardgrass; [14],0
same,Barnyardgrass plant response rating,bamyardgrass; [15],0
same,Barnyardgrass plant response rating,"bamyardgrass; Rate 1000 g/ha, Pre-emergence (as headed), scale 0 to 10",0
same,Barnyardgrass plant response rating,"bamyardgrass; Rate 2000 g/ha, Pre-emergence (as headed), scale 0 to 10, 0 no effect, 10 complete control",0
same,"Plant response rating, Wheat (winter)","winter wheat [1]; Rate 250 g/ha, 0 to 100 scale (0 no effect, 100 complete control)",55
same,"Plant response rating, Wheat (winter)",winter wheat [1]; [16],65
same,"Plant response rating, Blackgrass","blackgrass; Rate 250 g/ha, 0 to 100 scale",30
same,"Plant response rating, Blackgrass",blackgrass; [17],65
same,"Plant response rating, Green foxtail","green foxtail; Rate 250 g/ha, 0 to 100 scale",20
same,"Plant response rating, Green foxtail",green foxtail; [17],40
same,"Plant response rating, I. Ryegrass","Italian ryegrass; Rate 250 g/ha, 0 to 100 scale",40
same,"Plant response rating, I. Ryegrass",Italian ryegrass; [17],50
same,"Plant response rating, Wheat (winter)","winter wheat [2]; Rate 250 g/ha, 0 to 100 scale",10
same,"Plant response rating, Wheat (winter)",winter wheat [2]; [17],20
same,"Plant response rating, Wild oat",wild oat; [17],55
same,"Plant response rating, Barley (winter)","winter barley; Rate 250 g/ha, 0 to 100 scale",30
same,"Plant response rating, Barley (winter)",winter barley; [17],50
Cc1nsc(C)c1-n1c(=O)on(C(=O)N(c2ccc(F)cc2)C(C)C)c1=O [Compound 157],Cocklebur plant response rating,cocklebur; [3],0
same,Cocklebur plant response rating,cocklebur; [4],0
same,Cocklebur plant response rating (0 to 10 scale),cocklebur; [5],0
same,Cocklebur plant response rating,cocklebur; [6],0
same,Cocklebur plant response rating,cocklebur; [7],0
same,Cocklebur plant response rating,cocklebur; [8],0
same,"Plant response rating, Cocklebur",cocklebur; [9],0
same,Cocklebur plant response rating,cocklebur; [18],0
same,Sugarbeets plant response rating,sugar beet; [3],0
same,Sugarbeets plant response rating,sugar beet; [4],0
same,Sugarbeets plant response rating (0 to 10 scale),sugar beet; [5],0
same,Sugarbeets plant response rating,sugar beet; [6],0
same,Sugarbeets plant response rating,sugar beet; [7],0
same,Sugarbeets plant response rating,sugar beet; [8],0
same,"Plant response rating, Sugarbeets",sugar beet; [9],0
same,Sugarbeets plant response rating,sugar beet; [18],0
same,S. Flatsedge plant response rating,smallflower flatsedge; [19],0
same,"Plant response rating, S. Flatsedge",smallflower flatsedge; [12],0
same,S. Flatsedge plant response rating,smallflower flatsedge; [20],0
same,S. Flatsedge plant response rating,smallflower flatsedge; [21],0
same,Barnyardgrass plant response rating,bamyardgrass; [19],0
same,"Plant response rating, Barnyardgrass",bamyardgrass; [12],0
same,Barnyardgrass plant response rating,bamyardgrass; [20],0
same,Barnyardgrass plant response rating,bamyardgrass; [21],0
same,"Plant response rating, Wheat (winter)",winter wheat [1]; [16],40
same,"Plant response rating, Wheat (winter)","winter wheat [1]; Rate 500 g/ha, 0 to 100 scale, 0 no effect, 100 complete control",30
same,Wheat (winter) plant response rating,winter wheat [1]; [22],20
same,Blackgrass plant response rating (0 to 100 scale),blackgrass; Rate 250 g/ha,20
same,"Plant response rating, Blackgrass",blackgrass; [23],40
same,"Plant response rating, Blackgrass",blackgrass; [17],50
same,Green foxtail plant response rating (0 to 100 scale),green foxtail; Rate 250 g/ha,30
same,"Plant response rating, Green foxtail",green foxtail; [23],40
same,"Plant response rating, Green foxtail",green foxtail; [17],50
same,I. Ryegrass plant response rating (0 to 100 scale),Italian ryegrass; Rate 250 g/ha,20
same,"Plant response rating, I. Ryegrass",Italian ryegrass; [23],30
same,"Plant response rating, I. Ryegrass",Italian ryegrass; [17],50
same,Wheat (winter) plant response rating (0 to 100 scale),winter wheat [2]; Rate 250 g/ha,20
same,"Plant response rating, Wheat (winter)",winter wheat [2]; [23],30
same,"Plant response rating, Wheat (winter)",winter wheat [2]; [17],40
same,Wild oat plant response rating (0 to 100 scale),wild oat,50
same,"Plant response rating, Wild oat",wild oat; [23],30
same,"Plant response rating, Wild oat",wild oat; [17],50
same,Barley (winter) plant response rating (0 to 100 scale),winter barley; Rate 250 g/ha,0
same,"Plant response rating, Barley (winter)",winter barley; [23],10
same,"Plant response rating, Barley (winter)",winter barley; [17],30
CC(C)N(C(=O)n1oc(=O)n(CC(C)(C)C)c1=O)c1ccc(F)cc1 [Compound 246],Cocklebur plant response rating,cocklebur; [24],0
same,Cocklebur plant response rating,cocklebur; [25],0
same,"Plant response rating, Cocklebur",cocklebur; [26],0
same,Cocklebur plant response rating,cocklebur; [8],0
same,Cocklebur plant response rating,"cocklebur; Rate 125 g/ha, Postemergence, scale 0 to 10",0
same,Cocklebur plant response rating,cocklebur; [27],0
same,"Plant response rating (0 to 10; 0 is no effect, 10 is complete control), Cocklebur","cocklebur; Rate 250 g/ha, Postemergence",1
same,Cocklebur plant response rating,cocklebur; [10],2
same,Sugarbeets plant response rating,sugar beet; [24],0
same,Sugarbeets plant response rating,sugar beet; [25],2
same,"Plant response rating, Sugarbeets",sugar beet; [26],8
same,Sugarbeets plant response rating,sugar beet; [27],1
same,Sugarbeets plant response rating,sugar beet; [10],0
same,S. Flatsedge plant response rating,smallflower flatsedge; [28],0
same,S. Flatsedge plant response rating,smallflower flatsedge; [29],0
same,S. Flatsedge plant response rating,smallflower flatsedge; [30],0
same,S. Flatsedge plant response rating,smallflower flatsedge; [31],0
same,Barnyardgrass plant response rating,bamyardgrass; [28],0
same,Barnyardgrass plant response rating,bamyardgrass; [29],0
same,Barnyardgrass plant response rating,bamyardgrass; [30],0
same,Barnyardgrass plant response rating,bamyardgrass; [31],8
same,"Plant response rating, Wheat (winter)",winter wheat [1]; [17],0
same,Wheat (winter) plant response rating,winter wheat [1]; [22],0
same,"Plant response rating, Wheat (winter)","winter wheat [1]; Rate 500 g/ha, 0 to 100 scale, 0 is no effect, 100 is complete control",0
same,Blackgrass plant response rating (0 to 100 scale),blackgrass; Rate 250 g/ha,60
same,"Plant response rating, Blackgrass",blackgrass; [23],100
same,"Plant response rating, Blackgrass",blackgrass; [32],100
same,Green foxtail plant response rating (0 to 100 scale),green foxtail; Rate 250 g/ha,100
same,"Plant response rating, Green foxtail",green foxtail; [23],100
same,"Plant response rating, Green foxtail",green foxtail; [32],100
same,I. Ryegrass plant response rating (0 to 100 scale),Italian ryegrass; Rate 250 g/ha,80
same,"Plant response rating, I. Ryegrass",Italian ryegrass; [23],90
same,"Plant response rating, I. Ryegrass",Italian ryegrass; [32],100
same,Wheat (winter) plant response rating (0 to 100 scale),winter wheat [2]; Rate 250 g/ha,50
same,"Plant response rating, Wheat (winter)",winter wheat [2]; [32],50
same,Wild oat plant response rating (0 to 100 scale),wild oat,50
same,"Plant response rating, Wild oat",wild oat; [23],65
same,"Plant response rating, Wild oat",wild oat; [32],85
same,Barley (winter) plant response rating (0 to 100 scale),winter barley; Rate 250 g/ha,40
same,"Plant response rating, Barley (winter)",winter barley; [23],50
same,"Plant response rating, Barley (winter)",winter barley; [32],60
